# Test results taken from US20060122105A1, “Method of improing the growth performance of an animal” (priority 2001, published 2006).
# Tests used:
# [1] = system: Actinobacillus pleuropneumoniae (App); assay: App challenge of pigs, prophylactic recombinant IL-1ra, plasmid IL-1ra or flunix (Example 5); type: in vivo; set-up: improvements in weight gain over saline controls / reduction in weight gain compared to saline controls / reduction in clinical symptoms compared to saline / reduction of pleurisy compared to saline treated controls / reduction in affected lung mass compared to saline treated controls: concentration or dose not given beside the values
# Method: Male pigs, with a mean starting weight of 52 kg, were allocated to 5 treatment groups as outlined in Table 6. Pigs were housed in group pens, with each pen containing a replicate from each of the treatment groups. The starting weights of each treatment group and each pen were equal prior to the start of the trial. Pigs were provided with pelleted feed and water ad libitum.
# Recombinant IL-1ra and saline-were administered as 1 ml doses, given subcutaneously behind the ear. Plasmids were administered in 1 ml doses, given intramuscularly in the hind-leg. Flunix was administered as a 2 ml dose according to the manufacturer's instructions, and delivered intramuscularly in the neck. The timetable of administration is outlined in Table 6 below.
# Prior to challenge, pigs were treated with recombinant cytokines, flunix or plasmids as described Table 7. Pigs were anaesthetised and infected intratracheally with 7.5×10^5 pfu App on day 0.
# Blood was sampled from pigs by venipuncture at 0, 24 h and 14 days post-challenge. Blood was assayed for immunological parameters as previously described. Pigs were weighed weekly from delivery of plasmids and for 2 weeks after challenge.
# At the conclusion of the trial, pigs were euthanased and the lungs removed for post-mortem examination. Lungs were scored for pleurisy from 0-5 (FIGS. 39 and 40) and the degree of pleuropneumonia was determined by weighing affected lung and expressed as a percentage of total lung weight (FIGS. 41 and 42). Pigs treated with flunix and IL-1ra had less pleurisy than the saline controls (FIG. 39).
# [2] = system: Actinobacillus pleuropneumoniae (App); assay: as above; type: in vivo; conditions: day 13 after challenge compared with pre-challenge levels; FIG. 35
smiles,measurement,setting,value
"Cc1c(Nc2ncccc2C(=O)O)cccc1C(F)(F)F [flunix, reference compound]",reduction in weight gain compared to saline controls,"[1]; 14d App challenge, FIG. 33",84.6%
same,production of IL-6 (mRNA in peripheral blood),"[1]; after App challenge, compared with saline treated controls, FIG. 36",reduce the production of IL-6 only
same,growth during the week of challenge,"[1]; first week after App challenge, FIG. 30",weight loss
same,reduction in affected lung mass compared to saline treated controls,"[1]; percentage of lung affected by App lesions, FIG. 42",64.1%
same,reduction of pleurisy compared to saline treated controls,"[1]; pleurisy score 0-5 at necropsy, FIG. 40",55.6%
same,levels of TNFα protein in the serum,[2],failed to inhibit the production of TNFα
